Measured values: patent publication US20180284095A1, “BIOMARKERS ASSOCIATED WITH LSD1 INHIBITORS AND USES THEREOF” (Oryzon Genomics, S.A., priority 2015, published 2018)

Tests used:
[1] = target: T1, Human recombinant monoamine oxidase MAO-B (Homo sapiens, UniProt P27338); assay: MAO-B fluorescence-based kynuramine assay; type: biochemical
T1 construct: purchased Sigma Aldrich
T1 sequence (P27338 1-520): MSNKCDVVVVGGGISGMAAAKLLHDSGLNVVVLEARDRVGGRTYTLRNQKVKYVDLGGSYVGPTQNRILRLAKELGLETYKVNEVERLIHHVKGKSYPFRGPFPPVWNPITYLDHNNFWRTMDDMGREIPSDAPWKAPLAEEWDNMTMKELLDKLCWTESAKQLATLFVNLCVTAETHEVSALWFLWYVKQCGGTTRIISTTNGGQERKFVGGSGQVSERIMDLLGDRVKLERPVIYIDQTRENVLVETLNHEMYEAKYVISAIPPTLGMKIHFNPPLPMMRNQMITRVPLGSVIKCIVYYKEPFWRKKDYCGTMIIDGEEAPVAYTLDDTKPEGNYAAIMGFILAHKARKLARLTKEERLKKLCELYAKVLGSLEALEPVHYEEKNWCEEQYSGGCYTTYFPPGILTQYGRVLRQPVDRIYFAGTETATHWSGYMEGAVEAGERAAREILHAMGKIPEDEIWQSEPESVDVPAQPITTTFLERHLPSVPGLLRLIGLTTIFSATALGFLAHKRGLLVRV
Source text: MAOs catalyze the oxidative deamination of primary, secondary and tertiary amines. In order to monitor MAO enzymatic activities and/or their inhibition rate by inhibitor(s) of interest, a fluorescence-based (inhibitor)-screening assay was set up. 3-(2-Aminophenyl)-3-oxopropanamine (kynuramine dihydrobromide, Sigma Aldrich), a non fluorescent compound was chosen as a substrate. Kynuramine is a non-specific substrate for both MAO-A and MAO-B activities. While undergoing oxidative deamination by MAO activities, kynuramine is converted into 4-hydroxyquinoline (4-HQ), a resulting fluorescent product.
The monoamine oxidase activity was estimated by measuring the conversion of kynuramine into 4-hydroxyquinoline. Assays were conducted in 96-well black plates with clear bottom (Corning) in a final volume of 100 μL. […]
After leaving the enzyme(s) interacting with the inhibitor, KM of kynuramine was added to each reaction for MAO-B and MAO-A assay respectively, and the reaction was left for 1 hour at 37° C. in the dark. […] The conversion of kynuramine to 4-hydroxyquinoline, was monitored by fluorescence (excitation at 320 nm, emission at 360 nm) using a microplate reader (Infinite 200, Tecan). Arbitrary units were used to measure levels of fluorescence produced in the absence and/or in the presence of inhibitor.
The IC50 values of each inhibitor were calculated with GraphPad Prism Software.

[2] = tested on: SAMP8 mice; assay: Novel Object Recognition Test (NORT) in SAMP8 mice; type: in vivo, mouse
Source text: The Senescence Accelerated Mouse Prone 8 (SAMP8) strain is a non-transgenic model for neurodegeneration reminiscent of Alzheimer's disease (T Takeda, Neurobiol Aging 1999, 20(2):105-10). Memory deficits appear around 5 months of age in SAMP8 mice and can be reliably assessed using the Novel Object Recognition Test (NORT).
Males and females were separated in two different cohorts and all treatments started at 5 months of age. […] Based on the results obtained in the first experiment, doses were adjusted in a second experiment using male mice.
The dose was calculated according to the animal water consumption average par cage and adjusted weekly. The test compound (or vehicle) was available for 5 days followed by a 2 day clearance in a weekly period.
NORT is used to assess animal's behavior when it is exposed to a novel and a familiar object (M Antunes and G Biala, Cogn Process. 2012, 13(2): 93-110). […]
The NORT test was performed after 2 (n=16/group) and repeated at 4 (n=10/group) months of treatment (between […] and 6:30 pm). […] During this second trial, objects A and B were placed in the maze, and the time that the animal explored the new object (tn) and the old object (to) were video-recorded. […]
Statistical analysis was performed using the GraphPad Prism 6.0 software package. NORT data from SAMP8 mice was analyzed by one-way ANOVA with treatment as the main factor. […]

Row | IC50 [1] [µM] | Molecule | memory loss as assessed by NORT ([2]; SAMP8 males and females, after 2 m and 4 m of treatment) | memory deficits (NORT), medium- and long-term memory ([2]; SAMP8 males, 0.32 and 0.96 mg/kg/day in drinking water, 2 and 4 months)
1 | 0.07 | NC(=O)CN[C@H]1C[C@@H]1c1ccc(OCc2ccccc2)cc1 (racemic) [Compound 3, 2-(((trans)-2-(4-(benzyloxy)phenyl)cyclopropyl)amino)acetamide] | – | –
2 | – | (−) 5-((((trans)-2-(4-(benzyloxy)phenyl)cyclopropyl)amino)methyl)-1,3,4-oxadiazol-2-amine [Compound 1] | completely prevents memory loss | rescued the memory deficits
3 | 5.1 | N[C@H]1CCN(CCN[C@H]2C[C@@H]2c2ccc(-c3cccc(C(F)(F)F)c3)cc2)C1 (racemic) [Compound 5, (S)-1-(2-(((trans)-2-(3′-(trifluoromethyl)-[1,1′-biphenyl]-4-yl)cyclopropyl)amino)ethyl)pyrrolidin-3-amine] | – | –
